Results taken from patent publication US20020099086A1, “Use of extracts from aristolochia in the treatment of AIDS” (PROTEOME SCIENCES PLC, priority 1998, published 2002).

Tests used:
[1] = system: Salmonella typhimurium strain TA 100; assay: Ames bio-assay, antimutagenic activity against 2-nitrofluorene (2-NF); type: cell-based; settings: for Residual mutagenic activity (%) observed for 2-NF: 1 μg 2-NF per plate
Description: (§1) The four major constituents of the benzene extract from Aristolochia taliscana roots—eupomatenoid-7 (7), eupomatenoid-1 (8), eupomatenoid-8 (17), Licarin-A (16)—were tested for their mutagenic and antimutagenic properties using the Ames bio-assay (Maron, D. M. and Ames, B. N., Mutation reasearch, 1983, 113, 173). The test compounds have the following structural formula: [drawing 11]
(§2) Salmonella typhimurium strain TA 100 was used as the test organism and 2-amino-anthracene (2-AA) and 2-nitrofluorene (2-NF) as standard mutagens, of which 1 μg were added to each test plate. In the experiments with 2-AA, “S9 Mix” (derived from phenobarbital treated rat liver cells (De Flora, S., Camoirana, A., D'Agostini, F. and Balansky, R., Mutation Research, 1992, 267, 183) was also added.

Saprolegnia asterophora = assay: Antifungal plate diffusion method; type: cell-based; settings: 150 microgramme aliquot spotted onto plate
Description: (§3) The antifungal activities of compounds of the invention was determined using a plate diffusion method. Plates containing medium and a fungal species were made up and 150 microgramme aliquots of a test compound of the invention were spotted onto the plate. The diameter of inhibition of fungal growth around the test compound was then determined.

Botryis cinerea = assay: Antifungal plate diffusion method; type: cell-based; settings: 150 microgramme aliquot spotted onto plate
Description: as §3

Rhizoctonia solani = assay: Antifungal plate diffusion method; type: cell-based; settings: 150 microgramme aliquot spotted onto plate
Description: as §3

brine shrimp = assay: Brine shrimp bioassay (cytotoxicity); type: in vivo; settings: for LC50: brine shrimp, 24 hours
Description: The cytotoxicity of compounds isolated from Aristolochia taliscana was assayed using the well known brine shrimp bioassay. The cytotoxicities of compounds of the invention, expressed as percentage “death rates” after 24 hours, at varying concentrations, are shown in Table 8 below.

[2] = system: Salmonella typhimurium strain TA 100; assay: Ames bio-assay, antimutagenic activity against 2-amino-anthracene (2-AA) with S9 Mix; type: cell-based; settings: for Residual mutagenic activity (%) observed for 2-AA: 1 μg 2-AA per plate, S9 Mix
Description: as §1, §2

serotonin receptors = assay: Interaction with neurotransmitter receptors; type: binding
[3] = system: remaining receptors of twenty seven common receptor types; assay: Interaction with neurotransmitter receptors; type: binding; settings: twenty seven common receptor types tested
Parkinsonism = settings: disclosed in U.S. Pat. No. 4782077; cited from earlier work
GABA receptors = assay: Interaction with neurotransmitter receptors; type: binding
dopamine receptors = assay: Interaction with neurotransmitter receptors; type: binding
opiate mu receptor = opiate mu receptor (Homo sapiens, UniProt P35372); assay: Interaction with neurotransmitter receptors; type: binding
opiate mu receptor, sequence (P35372 whole entry): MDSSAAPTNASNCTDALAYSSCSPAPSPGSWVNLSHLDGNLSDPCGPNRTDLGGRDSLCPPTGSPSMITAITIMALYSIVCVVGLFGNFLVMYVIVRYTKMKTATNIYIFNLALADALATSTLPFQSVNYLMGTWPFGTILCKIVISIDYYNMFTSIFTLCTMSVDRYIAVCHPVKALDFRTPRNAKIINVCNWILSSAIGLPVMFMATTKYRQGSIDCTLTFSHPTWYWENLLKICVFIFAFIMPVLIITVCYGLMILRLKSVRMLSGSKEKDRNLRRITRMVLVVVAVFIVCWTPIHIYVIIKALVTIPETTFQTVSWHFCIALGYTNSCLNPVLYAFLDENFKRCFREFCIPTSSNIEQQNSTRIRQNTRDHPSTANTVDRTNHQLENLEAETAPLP

| Molecule | diameter of inhibition of fungal growth, Saprolegnia asterophora (Saprolegnia asterophora) | diameter of inhibition of fungal growth, Botryis cinerea (Botryis cinerea) | diameter of inhibition of fungal growth, Rhizoctonia solani (Rhizoctonia solani) | “Death Rate” After 24 Hours (%) (brine shrimp; 10 ppm) | “Death Rate” After 24 Hours (%) (brine shrimp; 100 ppm) | “Death Rate” After 24 Hours (%) (brine shrimp; 500 ppm) | LC50 (brine shrimp) | further results |
| --- | --- | --- | --- | --- | --- | --- | --- | --- |
| CC=Cc1cc(OC)c2c(c1)C(C)C(c1ccc3c(c1)OCO3)O2 (single isomer, unassigned; (-)) [Eupomatenoid-8 (17)] | − | − | − | 9 | 27 | 42 | >500 ppm | antimutagenic effect against 2-nitrofluorene (in words) [1]: did not show any antimutagenic effect; Residual mutagenic activity (%) observed for 2-NF ([1]; 50 μg compound added): 100%; Residual mutagenic activity (%) observed for 2-NF ([1]; 100 μg compound added): 95%; antimutagenic effect against 2-aminoanthracene (in words) [2]: did not show any antimutagenic effect; Residual mutagenic activity (%) observed for 2-AA ([2]; 50 μg compound added): 90%; Residual mutagenic activity (%) observed for 2-AA ([2]; 100 μg compound added): 73% |
| COc1cc(C2(C)COc3c(OC)cc(C=O)cc32)ccc1O (stereo not shown) |  |  |  |  |  |  |  | melting point: 162 to 165 °C |
| (+)(2R, 3R)-Dihydrocarinatidin [Dihydrocarinatidine (21)] | + (+ = 5 mm diameter inhibition) | + (+ = 5 mm diameter inhibition) | + (+ = 5 mm diameter inhibition) | 26 | 53 | 80 | ca. 120 ppm |  |
| CC=Cc1cc(OC)c2oc(-c3ccc4c(c3)OCO4)c(C)c2c1 [Eupomatenoid-1 (8), Eupomatenoid-1] | − | − | − | 12 | 16 | 20 | >500 ppm | antimutagenic effect against 2-nitrofluorene (in words) [1]: not against 2-NF; Residual mutagenic activity (%) observed for 2-NF ([1]; 50 μg compound added): 99%; Residual mutagenic activity (%) observed for 2-NF ([1]; 100 μg compound added): 93%; antimutagenic effect against 2-aminoanthracene (in words) [2]: antimutagenically active; Residual mutagenic activity (%) observed for 2-AA ([2]; 50 μg compound added): 49%; Residual mutagenic activity (%) observed for 2-AA ([2]; 100 μg compound added): 44% |
| C/C=C/c1cc(OC)c2oc(-c3ccc(O)c(OC)c3)c(C)c2c1 [Eupomatenoid-7 (7), Eupomatenoid-7] | − | − | − | 27 | 38 | 38 | >500 ppm | antimutagenic effect against 2-nitrofluorene (in words) [1]: strong antimutagenic effects; Residual mutagenic activity (%) observed for 2-NF ([1]; 50 μg compound added): 16%; Residual mutagenic activity (%) observed for 2-NF ([1]; 100 μg compound added): 0%; antimutagenic effect against 2-aminoanthracene (in words) [2]: strong antimutagenic effects; Residual mutagenic activity (%) observed for 2-AA ([2]; 50 μg compound added): 4%; Residual mutagenic activity (%) observed for 2-AA ([2]; 100 μg compound added): 0% |
| C/C=C/c1cc(OC)c2c(c1)[C@H](C)[C@@H](c1ccc(O)c(OC)c1)O2 [Licarin-A (16), Licarin-A] | − | − | ++ (++ = 5-10 mm diameter inhibition) | 93 | 93 | 96 | <10 ppm | antimutagenic effect against 2-nitrofluorene (in words) [1]: not against 2-NF; Residual mutagenic activity (%) observed for 2-NF ([1]; 50 μg compound added): 94%; Residual mutagenic activity (%) observed for 2-NF ([1]; 100 μg compound added): 85%; antimutagenic effect against 2-aminoanthracene (in words) [2]: antimutagenically active; Residual mutagenic activity (%) observed for 2-AA ([2]; 50 μg compound added): 31%; Residual mutagenic activity (%) observed for 2-AA ([2]; 100 μg compound added): 6% |
| COc1cc([C@@H]2c3cc4c(cc3[C@H](O)[C@H]3COC(=O)[C@H]23)OCO4)cc(OC)c1OC [Podophyllotoxin, reference compound] |  |  |  | 74 | 93 | 100 | <10 ppm |  |
| COc1cc(C=O)ccc1O [Vanillin (31), Vanillin] | − | − | − | 5 | 0 | 12 | >500 ppm |  |
| COc1cc2c(cc1C)C(=O)[C@H](O)C[C@@H]2C [Compound 34, (2R,4S)-2-Hydroxy-6-methoxy-4,7-dimethyl-1-tetralone] | ++ (++ = 5-10 mm diameter inhibition) | ++ (++ = 5-10 mm diameter inhibition) | ++ (++ = 5-10 mm diameter inhibition) | 52 | 86 | 100 | <10 ppm |  |
| COc1ccc2cc3c4c(cc(OC)c(OC)c4c2c1)C(=O)N3 [Aristolactam B (3), Aristolactam B III] | − | − | + (+ = 5 mm diameter inhibition) | 5 | 9 | 29 | >500 ppm |  |
| C/C=C/c1cc(OC)c2oc(-c3ccc(O)c(OC)c3)c(CO)c2c1 |  |  |  |  |  |  |  | melting point: 175 to 179 °C |
| COc1cc(-c2oc3c(OC)cc(/C=C/CO)cc3c2C)ccc1O |  |  |  |  |  |  |  | melting point: 180 to 183 °C |
| C=C1/C=C/[C@@H](C(C)C)CC/C(C)=C/CC1 [E-Germacrene D (38), ent-Germacrene-D] | − | + (+ = 5 mm diameter inhibition) | + (+ = 5 mm diameter inhibition) | 0 | 39 | 100 | ca. 126 ppm |  |
| Taliscanine [Taliscanine (5)] |  |  |  |  |  |  |  | activity at the serotonin receptors (serotonin receptors): negligible activity; levels of inhibition with the remaining receptors [3]: very poor levels of inhibition; symptoms of Parkinsonism and related neurological disorders (Parkinsonism): alleviates the symptoms of Parkinsonism and related neurological disorders; activity at the GABA receptors (GABA receptors): negligible activity; activity at the dopamine receptors (dopamine receptors): negligible activity; inhibition, opiate mu receptor (opiate mu receptor): 50% |
| COc1cc(/C=C/CO)ccc1O [Coniferyl alcohol (29), Coniferyl alcohol] | − | − | − | 0 | 0 | 15 | >500 ppm |  |
| C=CC(O)c1cc(OC)c2oc(-c3ccc(O)c(OC)c3)c(C)c2c1 (racemic) |  |  |  |  |  |  |  | melting point: 164 to 167 °C |
| Aristolactam C III [Aristolactam C (4)] | ++ (++ = 5-10 mm diameter inhibition) | + (+ = 5 mm diameter inhibition) | + (+ = 5 mm diameter inhibition) | 0 | 0 | 3 | >500 ppm |  |
